# Results as given in patent publication US4471131A, “Novel silyl esters of N-phosphonomethylglycine” (Monsanto Company, priority 1983, dated 1984).
# Columns and labels:
# Test in all cases: post-emergence herbicidal activity, greenhouse
# Type in all cases: in vivo
# Panicum Spp = conditions: Table III
# Summary of the method: (§1)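 Injury scores compare treated plants with untreated control pans at roughly 2 and 4 weeks post-spray. Treatment was a single atomizer application, in a solution or suspension with about 0.4% emulsifier by weight, to greenhouse plants aged two to three weeks.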
# Cocklebur = system: Cocklebur
# Summary of the method: as §1
# Yellow Nutsedge = conditions: Table II
# Summary of the method: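 Plants grown from seed or vegetative propagules in topsoil pans on a greenhouse sand bench, watered from below, were atomizer-sprayed at two to three weeks of age. The spray carried about 0.4% by weight emulsifier. Injury relative to unsprayed control pans was scored approximately two and four weeks after treatment.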
# Downy Brome = system: Downy Brome
# Summary of the method: as §1
# Large Crabgrass = conditions: Table III
# Summary of the method: as §1
# [1] = 2 WAT, 1.1 kg/h, formulated in anhydrous tetrahydrofuran
# [2] = 2 WAT, 5.6 kg/h, formulated in anhydrous tetrahydrofuran
# [3] = 2 WAT, .28 kg/h, formulated in anhydrous tetrahydrofuran
# [4] = 4 WAT, 1.1 kg/h, formulated in anhydrous tetrahydrofuran
# [5] = 4 WAT, 5.6 kg/h, formulated in anhydrous tetrahydrofuran
# [6] = Table II, 2 WAT, 5.6 kg/h, formulated in anhydrous tetrahydrofuran
# [7] = Table II, 2 WAT, 11.2 kg/h, formulated in anhydrous tetrahydrofuran
# [8] = Table II, 4 WAT, 5.6 kg/h, formulated in anhydrous tetrahydrofuran
# [9] = Table II, 4 WAT, 11.2 kg/h, formulated in anhydrous tetrahydrofuran
# [10] = Table III, 2 WAT, 1.1 kg/h, formulated in anhydrous tetrahydrofuran
# [11] = Table III, 2 WAT, 5.6 kg/h, formulated in anhydrous tetrahydrofuran
# [12] = Table III, 2 WAT, .28 kg/h, formulated in anhydrous tetrahydrofuran
# [13] = Table III, 4 WAT, 1.1 kg/h, formulated in anhydrous tetrahydrofuran
# [14] = Table III, 4 WAT, 5.6 kg/h, formulated in anhydrous tetrahydrofuran
# [15] = Table III, 4 WAT, .28 kg/h, formulated in anhydrous tetrahydrofuran
compound,measurement,setting,value
"CCOC(=O)CNCP(=O)(O)O[Si](c1ccccc1)(c1ccccc1)C(C)(C)C [Ex. 7, Glycine, N--((([(1,1-Dimethylethyl)Diphenylsilyl]Oxy)Hydroxyphosphinyl)Methyl)-,Ethyl Ester]",Plant Response Index (S),"Panicum Spp; 2 WAT, 1.1 kg/h",4 (100% inhibition)
same,Plant Response Index (S),Panicum Spp; [1],2 (50-74% inhibition)
same,Plant Response Index (S),"Panicum Spp; 2 WAT, 5.6 kg/h",3 (75-99% inhibition)
same,Plant Response Index (S),Panicum Spp; [2],4 (100% inhibition)
same,Plant Response Index (S),"Panicum Spp; 2 WAT, .28 kg/h",3 (75-99% inhibition)
same,Plant Response Index (S),Panicum Spp; [3],1 (25-49% inhibition)
same,Plant Response Index (S),"Panicum Spp; 4 WAT, 1.1 kg/h",4 (100% inhibition)
same,Plant Response Index (S),Panicum Spp; [4],2 (50-74% inhibition)
same,Plant Response Index (S),"Panicum Spp; 4 WAT, 5.6 kg/h",4 (100% inhibition)
same,Plant Response Index (S),Panicum Spp; [5],4 (100% inhibition)
same,Plant Response Index (S),"Panicum Spp; 4 WAT, .28 kg/h",3 (75-99% inhibition)
same,Plant Response Index (S),"Panicum Spp; 4 WAT, .28 kg/h, formulated in anhydrous tetrahydrofuran",1 (25-49% inhibition)
same,Plant Response Index (B),"Cocklebur; Table II, 2 WAT, 5.6 kg/h",3 (75-99% inhibition)
same,Plant Response Index (B),Cocklebur; [6],2 (50-74% inhibition)
same,Plant Response Index (B),"Cocklebur; Table II, 2 WAT, 11.2 kg/h",2 (50-74% inhibition)
same,Plant Response Index (B),Cocklebur; [7],1 (25-49% inhibition)
same,Plant Response Index (B),"Cocklebur; Table II, 4 WAT, 5.6 kg/h",4 (100% inhibition)
same,Plant Response Index (B),Cocklebur; [8],3 (75-99% inhibition)
same,Plant Response Index (B),"Cocklebur; Table II, 4 WAT, 11.2 kg/h",4 (100% inhibition)
same,Plant Response Index (B),Cocklebur; [9],3 (75-99% inhibition)
same,Plant Response Index (B),"Cocklebur; Table III, 2 WAT, 1.1 kg/h",2 (50-74% inhibition)
same,Plant Response Index (B),Cocklebur; [10],2 (50-74% inhibition)
same,Plant Response Index (B),"Cocklebur; Table III, 2 WAT, 5.6 kg/h",2 (50-74% inhibition)
same,Plant Response Index (B),Cocklebur; [11],3 (75-99% inhibition)
same,Plant Response Index (B),"Cocklebur; Table III, 2 WAT, .28 kg/h",1 (25-49% inhibition)
same,Plant Response Index (B),Cocklebur; [12],2 (50-74% inhibition)
same,Plant Response Index (B),"Cocklebur; Table III, 4 WAT, 1.1 kg/h",3 (75-99% inhibition)
same,Plant Response Index (B),Cocklebur; [13],2 (50-74% inhibition)
same,Plant Response Index (B),"Cocklebur; Table III, 4 WAT, 5.6 kg/h",3 (75-99% inhibition)
same,Plant Response Index (B),Cocklebur; [14],3 (75-99% inhibition)
same,Plant Response Index (B),"Cocklebur; Table III, 4 WAT, .28 kg/h",1 (25-49% inhibition)
same,Plant Response Index (B),Cocklebur; [15],2 (50-74% inhibition)
same,Plant Response Index (G),"Yellow Nutsedge; 2 WAT, 5.6 kg/h",1 (25-49% inhibition)
same,Plant Response Index (G),Yellow Nutsedge; [2],1 (25-49% inhibition)
same,Plant Response Index (G),"Yellow Nutsedge; 2 WAT, 11.2 kg/h",2 (50-74% inhibition)
same,Plant Response Index (G),"Yellow Nutsedge; 2 WAT, 11.2 kg/h, formulated in anhydrous tetrahydrofuran",1 (25-49% inhibition)
same,Plant Response Index (G),"Yellow Nutsedge; 4 WAT, 5.6 kg/h",2 (50-74% inhibition)
same,Plant Response Index (G),Yellow Nutsedge; [5],2 (50-74% inhibition)
same,Plant Response Index (G),"Yellow Nutsedge; 4 WAT, 11.2 kg/h",3 (75-99% inhibition)
same,Plant Response Index (G),"Yellow Nutsedge; 4 WAT, 11.2 kg/h, formulated in anhydrous tetrahydrofuran",2 (50-74% inhibition)
same,Plant Response Index (J),"Downy Brome; Table II, 2 WAT, 5.6 kg/h",2 (50-74% inhibition)
same,Plant Response Index (J),Downy Brome; [6],1 (25-49% inhibition)
same,Plant Response Index (J),"Downy Brome; Table II, 2 WAT, 11.2 kg/h",2 (50-74% inhibition)
same,Plant Response Index (J),Downy Brome; [7],1 (25-49% inhibition)
same,Plant Response Index (J),"Downy Brome; Table II, 4 WAT, 5.6 kg/h",3 (75-99% inhibition)
same,Plant Response Index (J),Downy Brome; [8],1 (25-49% inhibition)
same,Plant Response Index (J),"Downy Brome; Table II, 4 WAT, 11.2 kg/h",3 (75-99% inhibition)
same,Plant Response Index (J),Downy Brome; [9],1 (25-49% inhibition)
same,Plant Response Index (J),"Downy Brome; Table III, 2 WAT, 1.1 kg/h",2 (50-74% inhibition)
same,Plant Response Index (J),Downy Brome; [10],1 (25-49% inhibition)
same,Plant Response Index (J),"Downy Brome; Table III, 2 WAT, 5.6 kg/h",2 (50-74% inhibition)
same,Plant Response Index (J),Downy Brome; [11],2 (50-74% inhibition)
same,Plant Response Index (J),"Downy Brome; Table III, 2 WAT, .28 kg/h",1 (25-49% inhibition)
same,Plant Response Index (J),Downy Brome; [12],0 (0-24% inhibition)
same,Plant Response Index (J),"Downy Brome; Table III, 4 WAT, 1.1 kg/h",2 (50-74% inhibition)
same,Plant Response Index (J),Downy Brome; [13],1 (25-49% inhibition)
same,Plant Response Index (J),"Downy Brome; Table III, 4 WAT, 5.6 kg/h",2 (50-74% inhibition)
same,Plant Response Index (J),Downy Brome; [14],3 (75-99% inhibition)
same,Plant Response Index (J),"Downy Brome; Table III, 4 WAT, .28 kg/h",0 (0-24% inhibition)
same,Plant Response Index (J),Downy Brome; [15],0 (0-24% inhibition)
same,Plant Response Index (T),"Large Crabgrass; 2 WAT, 1.1 kg/h",4 (100% inhibition)
same,Plant Response Index (T),Large Crabgrass; [1],3 (75-99% inhibition)
same,Plant Response Index (T),Large Crabgrass; [2],3 (75-99% inhibition)
same,Plant Response Index (T),Large Crabgrass; [3],2 (50-74% inhibition)
same,Plant Response Index (T),"Large Crabgrass; 4 WAT, 1.1 kg/h",4 (100% inhibition)
same,Plant Response Index (T),Large Crabgrass; [4],3 (75-99% inhibition)
